Test results reported in patent US20080124404A1 (priority 2006, published 2008).
“Also recorded” adds a separate entry of the source.

Key:
[1] = test system: LDLR mRNA; test: Northern blot analysis of LDLR mRNA expression in HepG2 cells; assay type: cell-based, human; settings: each alkaloid 20 μg/ml, 8 h
Protocol: . The membrane was stripped and hybridized to a human GAPDH probe. The figure shown is representative of 3 separate studies.
FIG. 2 illustrates the comparison of dose-dependent effects of CND and BBR on LDLR mRNA expression. HepG2 cells were treated with CND or BBR for 8 h at the indicated concentrations and total RNA was isolated for analysis of LDLR mRNA and GAPDH mRNA expression by northern blot (FIG. 2, Panel A) and real-time PCR assays (FIG. 2, Panel B).
(§1) Quantitation of LDLR mRNA expression by northern blot analysis and real-time PCR. Isolation of total RNA and analysis of LDLR and GAPDH mRNA by northern blot were performed as previously described (Liu, J et al. J. Lipid Res. 1997, 38: 2035-2048). Differences in hybridization signals of northern blots were quantitated by a PhosphoImager. For quantitative real-time PCR assays, the reverse transcription was conducted with random primers using M-MLV (Promega) at 37° C. for 1 h in a volume of 25 u.1 containing 1 μg of total RNA. Real-time PCR was performed on the cDNA using ABI Prism 7900-HT Sequence Detection System and Universal MasterMix. The human and hamster LDLR and GAPDH Pre-Developed TaqMan Assay Reagents (Applied Biosystems) were used to assess the mRNA expressions in HepG2 and in hamster livers. The MDR1 mRNA expression in HepG2 cells was assayed similarly using the Pre-Developed probes from Applied Biosystems.
. HPLC/UV-DAD spectroscopic comparisons with standard solutions were used to confirm the presence of BBR, CND, HDT, and HDTN, as well as the absence of PMT. Concentrations of CND and HDT in sample extracts were determined using a single-point calibration and concentrations of BBR in sample extracts were calculated using a standard curve. The identities of BBR, CND, and HDT in extracts were verified further by LC-MS analysis. […]. […]. The results of northern blots were independently confirmed by real-time quantitative RT-PCR (FIG. 1C). […]. […].

[2] = test system: LDLR mRNA; test: Real-time quantitative RT-PCR of LDLR mRNA expression in HepG2 cells; assay type: cell-based, human; settings: HepG2, 8 h
[3] = test system: LDLR mRNA; test: LDLR mRNA stability under actinomycin D in HepG2 cells (real-time RT-PCR); assay type: cell-based, human; settings: HepG2, actinomycin D 5 μg/ml 30 min before, BBR or CND 15 μg/ml, 4 h
[4] = test system: LDLR mRNA; test: Hepatic LDLR mRNA expression in HFHC-fed hamsters (quantitative real-time RT-PCR); assay type: in vivo, Golden Syrian hamsters; settings: BBR 1.8 mg/d, end of 24-day treatment, n=6, p<0.0001
[5] = test system: ERK; test: Western blot of phosphorylated ERK in hamster liver; assay type: in vivo, Golden Syrian hamsters; settings: pooled liver samples per treatment group (n=9), HFHC hamsters
[6] = test system: ERK; test: Western blot of phosphorylated ERK in HepG2 cells; assay type: cell-based, human; settings: HepG2, BBR, HDT or CND 20 μg/ml, 2 h
[7] = Body weight, food intake and adverse effects in HFHC-fed hamsters; assay type: in vivo, Golden Syrian hamsters; settings: 24 day treatment, control animals increased by 10%
Protocol: . The body weight of hamsters under a HFHC diet in untreated and drug-treated animals at indicated doses were monitored on alternate days (FIG. 11, Panel A). The food intake within 24 h period were measured 2-3 times a week throughout the entire experiment (FIG. 11, Panel B). The data are means±S.D. of 3 cages per group.
Goldenseal in vivo studies. 42 male Golden Syrian hamsters at 6-8 weeks of age were purchased from the Charles River Laboratories and were housed in cages (3 animals/cage) in an air-conditioned room with a 12 h light cycle. Animals had free access to autoclaved water and food. After one week on a regular rodent chow diet, 36 hamsters were switched to a rodent HFHC diet containing 1.25% cholesterol and 2.2% fat (Product # D12108, Research Diet, Inc., New Brunswick, N.J.) and 6 hamsters were fed a control normal diet containing 0.37% fat and no cholesterol (Product # D12102, Research Diet, Inc.). […]. Berberine Chloride was dissolved in the same vehicle solution. Four hours after the last drug treatment, all animals were sacrificed. Blood samples were collected through cardiac puncture and were analyzed for liver function, kidney function, and blood chemistry at DEXX Laboratories (Palo Alto, Calif.). […] After staining, tissue sections were evaluated by a veterinary pathologist and an experienced scientist independently. […]

[8] = biological target: MDR1 transporter (pgp-170) (Homo sapiens, UniProt P08183)
[9] = 32 hypercholesterolemic patients, oral, 1 g daily, 3 months; cited from earlier work
[10] = test system: DNA; settings: cited from earlier work
[11] = Measurement of hepatic cholesterol and TG in HFHC-fed hamsters; settings: BBR 1.8 mg/animal/d
[12] = test system: HepG2 cells; test: BBR uptake assay, intracellular fluorescence by FACS in HepG2 cells; settings: HepG2, 5 min incubation, BBR 15 μg/ml
[13] = test system: LDLR promoter; test: LDLR promoter dual luciferase reporter assay (pLDLR234Luc) in HepG2 cells; assay type: cell-based, human; settings: 8 h
Protocol: FIG. 1E: Analysis of LDLR promoter activity: HepG2 cells were cotransfected with pLDLR234Luc and a normalizing vector pRL-SV40. […] Firefly luciferase and renilla luciferase activities were measured. The data represent normalized LDLR promoter activity.
Transient transfection and dual luciferase reporter assays. HepG2 cells were transfected with plasmid DNA (100 ng/well) by using FuGENE 6 transfection reagent. The DNA ratio of pLDLR234Luc (Li, C et al. J. Biol. Chem. 1999, 274: 6747-6753) to renilla luciferase reporter pRL-SV40 was 90:10. Twenty h after transfection, medium was changed to 0.5% FBS and drugs were added for 8 h prior to cell lysis. The luciferase activity in cell lysate was measured using Dual Luciferase Assay System obtained from Promega. Triplicate wells were assayed for each transfection condition.

[14] = test system: LDLR mRNA; test: LDLR mRNA expression with MDR1 blocked by verapamil or MDR1 siRNA in HepG2 cells (real-time PCR); assay type: cell-based, human
Protocol: as §1, with “Isolation of total RNA and analysis of LDLR and GAPDH mRNA by northern blot were performed as previously described (Liu, J et al. J. Lipid Res. 1997, 38: 2035-2048).” left out
Small interference RNA (siRNA) transfection.

[15] = biological target: MDR1 (Homo sapiens, UniProt P08183); test: MDR direct dye efflux assay with DiOC2(3) in HepG2 cells; settings: HepG2, co-incubation 2 h, CND 15 μg/ml
Protocol: MDR direct dye efflux assay. The MDR Direct Dye Efflux Assay kit (Cat. No. ECM910, Chemicon International Inc., Temecula, Calif.) was used to measure MDR1 activity. HepG2 cells seeded in 6-well culture plates were incubated in efflux buffer (RPMI+2% BSA) and 1 μg/ml of DiOC2(3) in the absence of presence of tested compounds at 37° C. for 2 h.

[16] = test system: liver cells; test: Cell survival by MTT (Cell Proliferation Kit I); assay type: cell-based; settings: different concentrations, 18 h
Protocol: The toxicity of CND and BBR were compared using a cell-based assay. Cell survival rate under drug treatments were determined by Cell Proliferation Kit I (MTT) obtained from Roche Applied Sciences (Indianapolis, Ind.). Cells were seeded in 96-well plates at a density of 5×10^3 cells/well/ in 100 μl medium supplemented with 10% FBS at 37° C. and 5% CO2. After 24 h, cells were incubated with fresh medium containing different concentrations of BBR or CND for 18 h. At the end of drug treatment, 10 μl of MTT labeling reagent per well was added to cells to reach a concentration of 0.5 mg/ml. After a 4 h-reaction, 100 μl of solubilization solution was added to each well and the plate was incubated at 37° C. overnight. The sample spectraphotometrical absorbance was measured by a microplate reader at the wavelength of 550 nm. The reading of sample without drug treatment was defined as 100% survival and readings from drug-treated samples were plotted relative to that value. Quadruple wells were used in each culture condition.

Sequence of MDR1 transporter (pgp-170) (P08183 whole entry): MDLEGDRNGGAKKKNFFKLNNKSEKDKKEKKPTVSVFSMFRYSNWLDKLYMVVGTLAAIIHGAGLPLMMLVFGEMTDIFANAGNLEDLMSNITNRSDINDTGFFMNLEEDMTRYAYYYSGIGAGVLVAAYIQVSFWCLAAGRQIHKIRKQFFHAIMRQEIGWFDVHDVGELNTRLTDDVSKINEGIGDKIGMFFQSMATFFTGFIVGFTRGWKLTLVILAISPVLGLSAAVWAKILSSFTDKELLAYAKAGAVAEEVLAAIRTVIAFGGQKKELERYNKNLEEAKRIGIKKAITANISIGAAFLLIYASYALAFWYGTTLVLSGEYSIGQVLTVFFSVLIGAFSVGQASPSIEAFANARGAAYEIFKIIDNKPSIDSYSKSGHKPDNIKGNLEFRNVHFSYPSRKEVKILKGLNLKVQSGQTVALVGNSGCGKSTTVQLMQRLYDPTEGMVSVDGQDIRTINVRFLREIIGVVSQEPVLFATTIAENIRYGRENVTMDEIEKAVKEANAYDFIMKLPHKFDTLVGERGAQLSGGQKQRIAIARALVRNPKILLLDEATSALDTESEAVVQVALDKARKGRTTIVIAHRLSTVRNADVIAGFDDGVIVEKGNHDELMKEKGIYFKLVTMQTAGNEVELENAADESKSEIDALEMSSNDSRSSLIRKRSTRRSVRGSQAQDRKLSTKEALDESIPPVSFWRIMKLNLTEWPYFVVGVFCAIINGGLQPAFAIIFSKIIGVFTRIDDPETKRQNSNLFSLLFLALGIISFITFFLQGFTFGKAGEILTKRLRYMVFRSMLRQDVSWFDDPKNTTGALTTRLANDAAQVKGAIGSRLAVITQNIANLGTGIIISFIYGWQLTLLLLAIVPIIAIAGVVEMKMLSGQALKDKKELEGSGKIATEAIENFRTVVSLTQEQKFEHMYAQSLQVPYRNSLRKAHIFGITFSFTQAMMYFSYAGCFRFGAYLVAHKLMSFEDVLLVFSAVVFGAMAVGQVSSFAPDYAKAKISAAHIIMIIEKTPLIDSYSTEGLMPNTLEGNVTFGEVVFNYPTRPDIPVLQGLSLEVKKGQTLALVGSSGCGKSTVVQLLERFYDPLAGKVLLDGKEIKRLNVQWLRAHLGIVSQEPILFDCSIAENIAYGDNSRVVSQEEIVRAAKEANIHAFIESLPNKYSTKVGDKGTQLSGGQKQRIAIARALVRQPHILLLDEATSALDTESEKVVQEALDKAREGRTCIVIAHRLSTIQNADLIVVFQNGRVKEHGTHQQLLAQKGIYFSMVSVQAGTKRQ
Sequence of MDR1 (P08183 whole entry): as above

COc1ccc2cc3[n+](cc2c1OC)CCc1cc2c(cc1-3)OCO2 [BBR, berberine]
LDLR mRNA expression (northern blot) [1]: strong inducers
increase in LDLR mRNA expression ([2]; BBR 20 μg/ml): 3 fold
LDLR mRNA increase compared to control under transcriptional suppression [3]: ~2.5 fold
increase in hepatic LDLR mRNA expression [4]: 3.7 fold
levels of phosphorylated ERK in liver [5]: greatly elevated
ERK phosphorylation [6]: attributable to CND and BBR
body weights [7]: unchanged
increase in BBR uptake in MDR1 siRNA transfected cells compared to mock transfected cells ([8]; human, 2 h, 15 μg/ml): 49%
increase in fluorescent intensity on blocking MDR1 activity with VRMP ([8]; human, 2 h, 15 μg/ml): 49%
reduction of LDL-c [9]: 25%
reduction of plasma total cholesterol (TC) [9]: 29%
reduction of triglyceride (TG) [9]: 35%
side effects [9]: without side effects
DNA binding [10]: strong DNA binding affinities
hepatic TC, % of control [11]: 68.7 % of control
hepatic TG, % of control [11]: 78.3 % of control
increase of intracellular fluorescent intensity [12]: ~2 fold

COc1ccc2c(c1OC)CN1CCc3cc4c(cc3[C@H]1C2)OCO4 [CND, canadine]
LDLR mRNA expression (northern blot) [1]: strong inducers
dose-dependent effect on LDLR mRNA expression, CND compared with BBR ([2]; similar concentration ranges, northern blot and real-time RT-PCR): greater activity than BBR; also recorded: more potent inducer of LDLR expression
LDLR promoter activity ([13]; HepG2, BBR or CND 15 μg/ml): not affected at all
LDLR mRNA increase compared to control under transcriptional suppression [3]: ~2.5 fold
fold increase in activity on LDLR mRNA in the presence of VRMP vs absence ([14]; HepG2, 0.6 μM VRMP, 8 h, 3 separate experiments, mean±S.D.): 0.82±0.34 fold
effect of MDR1 siRNA transfection on activity in elevation of LDLR mRNA level ([14]; HepG2, siRNA 3 days, drug 6 h): not affected
efflux of DiOC2(3) [15]: no inhibitory effect
ERK phosphorylation [6]: attributable to CND and BBR
toxicity to liver cells (cell survival, MTT), CND compared with BBR [16]: less toxic to liver cells than berberine (BBR)
MDR1 substrate status ([8]; inferred from lack of VRMP effect on activity in HepG2): not a substrate of MDR1
DNA binding [10]: does not bind to DNA

COc1ccc2c(c1OC)C(=O)O[C@@H]2[C@H]1c2cc3c(cc2CCN1C)OCO3 [HDT, β-hydrastine]
LDLR mRNA expression (northern blot) [1]: no effects

CN1CCc2cc3c(cc2C1O)OCO3 (stereo not shown) [HDTN, hydrastinine]
LDLR mRNA expression (northern blot) [1]: no effects

COc1cc2c(cc1OC)-c1cc3ccc(OC)c(OC)c3c[n+]1CC2 [PMT, palmatine]
LDLR mRNA expression (northern blot) [1]: no regulatory activity on LDLR expression; also recorded: no effects
DNA binding [10]: strong DNA binding affinities

COc1ccc(CCN(C)CCCC(C#N)(c2ccc(OC)c(OC)c2)C(C)C)cc1OC (stereo not shown) [VRMP, verapamil]
effect of VRMP itself on the LDLR mRNA level [14]: little effect

B1: OM: cytokine oncostatin M, known activator of the LDLR promoter (protein, UniProt P13725 26-221, looked up)
Oncostatin-M: AAIGSCSKEYRVLLGQLQKQTDLMQDTSRLLDPYIRIQGLDVPKLREHCRERPGAFPSEETLRGLGRRGFLQTLNATLGCVLHRLADLEQRLPKAQDLERSGLNIEDLEKLQMARPNILGLRNNIYCMAQLLDNSDTAEPTKAGRGASQPPTPTPASDAFQRKLEGCRFLHGYHRFMHSVGRVFSKWGESPNRSRR
LDLR promoter activity ([13]; HepG2, OM 50 ng/ml): strongly elevated
